Values after ≈ are worked out from the molar mass of the structure shown. Where a SMILES comes first, the peptide text is derived from it. [ ]: non-standard residue; d: D form. The star is where a group is joined. d(aIle) = CC[C@H](C)[C@@H](N)C(=O)O; dDab = NCC[C@@H](N)C(=O)O; Octanoyl = CCCCCCCC(=O)*; Dab = NCC[C@H](N)C(=O)O; AEEA = NCCOCCOCC(=O)O
Tests used:
[1] = tested on: N. gonorrhoeae FA1090; conditions: microdilution in FB, ~5 × 10^4 CFU, 24 hr, 37°C, 5% CO2
Method: (§1) columns (ThermoFisher scientific). Activated mAb was added to 0.9 mg of Oct-TriA1 analogues (synthesised by ISCA Biochemicals, UK) and incubated at room temperature for 60 min. ADCs were dialysed using slide-A-Lyzer cassette (20K MWCO, ThermoFisher scientific) into PBS overnight at 4 °C […]
(§2) MALDI-TOF MS analysis for determination of intact mass mAbs or ADCs with a concentration of 1 mg/mL were acidified with 1% trifluoroacetic acid and mixed with Super DHB matrix, 1 μl was spotted onto an MTP Anchorchip 600/384. For every mAb, three sample spots were prepared from the same solution using three protocols advised by the manufacturer. MALDI-TOF measurements were performed on a Microflex LRF mass spectrometer, equipped with a 60Hz nitrogen laser at 337nm. Number of peptides conjugated was calculated using the MALDI-TOF molecular weights (MW) [MW = M+] of each ADC, the unconjugated antibody (mAb), and the molecular weights of Oct-TriA1 analogues using the following equation.
(§3) Number of peptides = MW ADC − MW mAb […]
(§4) Determination of Oct-TriA1 Minimum Inhibitory Concentration (MIC)
(§5) N. gonorrhoeae was resuspended in PBS to an ODA600 1.0, and ̴5 × 10^4 CFU added to wells of a microdilution plate containing dilutions of antimicrobials in FB. Plates were incubated for 24 hr at […]
(§6) 37°C, in 5% CO2 then 10 μl aliquots plated onto GCB agar. The MIC was defined as the lowest concentration of an antimicrobial that prevented bacterial growth. […]
(§7) Peptide concentration in ADC preparations
(§8) Peptide concentrations for ADCs were calculated from the antibody concentration, the drug-to-antibody ratio (DAR), and the peptide molecular weight using the following formula:
(§9) Conc. peptide (µg/mL) = Conc. ADC (µg/mL) × DAR x MWpeptide (Da) […]
(§10) Where Conc. ADC is the ADC/ mAb concentration, MWADC is the mAb molecular weight (150 kDa), MWpeptide is the peptide molecular weight and DAR is the average number of peptides per conjugate.
(§11) This formula was used to convert ADC concentrations to peptide concentrations for all assays. […]

[2] = tested on: N. gonorrhoeae WHO M; conditions: microdilution in FB, ~5 × 10^4 CFU, 24 hr, 37°C, 5% CO2
Method: as §1, §2, §3, §4, §5, §6, §7, §8, §9, §10, §11

[3] = tested on: N. gonorrhoeae G97687 (MDR isolate); conditions: G97687, MDR isolate resistant to ESCs and azithromycin; microdilution in FB, 24 hr, 37°C, 5% CO2
Method: as §4, §5, §6, §7, §8, §9, §10, §11

[4] = tested on: human erythrocytes; assay: Hemolysis of human erythrocytes; format: cell-based
Method: For hemolysis, whole human blood (1 ml; K2EDTA; Cambridge Bioscience) was washed in PBS then 0.5% added to an equal volume of peptides or ADCs in 96-well V-bottomed polypropylene plates and incubated at 37°C for 1 hr. Cells were pelleted at 1,000 × g for 10 min and the absorbance at OD415 measured. Positive (melittin, 2.5 µM, Merck Life Science) and negative (PBS) controls were normalised as 100 and 0% hemolysis, respectively. […]

[5] = tested on: HK-2 cells; assay: MTT cell viability; format: cell-based, human; conditions: n = 3
Method: HK-2 cells (CRL-2190™, Americab Type Culutre Collection (ATCC)), a proximal renal tubule cell(7), and End1/E6E7 (CRL-2615™, ATCC) upper cervical epithelial cells(8) were cultured in Keratinocyte Serum Free Medium (Invitrogen, Life Technologies Ltd.) with human recombinant EGF (5 ng ml-1) and bovine pituitary extract (0.05 mg ml−1) at 37°C in 5% CO2. […]
Cell viability was assessed by 3-(4,5-dimethylthiazol-2-yl)-2,5-diphenyl-2H-tetrazolium bromide (MTT) assay(9); 200 µl fresh cell media and 250 µg of MTT was added to cells. Plates were Incubated at 37 °C, 5% CO2 for 3 hr then 200 µl of DMSO was added to wells with 25 µl glycine buffer (0.1 M glycine, 0.1 M NaCl pH 10.5) and shaken at 1000 r.p.m. for 10 min. Absorbance was read at OD570 nm. Cell viability was calculated as (sample absorbance – cell free blank/media control absorbance) x100.

[6] = tested on: N. gonorrhoeae FA1090; assay: Time-to-kill assay; format: cell-based, Neisseria gonorrhoeae; conditions: FA1090, 50 μg mL^−1 of the AMP, GW medium; n = 3
Method: (§12) Fig. 4. […] (C) Time-to-kill curve analysis with ADCs protocol. N. gonorrhoeae were grown for 24 h prior to harvesting supernatant with or without IgAP, wild-type, and ΔigAP, respectively. Supernatant was dialyzed into fresh media prior to inoculating with respective N. gonorrhoeae strains. After 3 h growth, ADCs or peptides were added, and CFU/mL was calculated every 30 min for 4 h. […] All data shown are the mean ± SD of CFU/ml (n = 3).
(§13) 37°C, in 5% CO2 then 10 μl aliquots plated onto GCB agar. The MIC was defined as the lowest concentration of an antimicrobial that prevented bacterial growth.
(§14) Determination of N. gonorrhoeae resistance to Oct-TriA1
(§15) Single colonies of N. gonorrhoeae FA1090 were inoculated into 2 mL of FB media supplemented with 1% Vitox (Oxoid) and grown overnight. After 24 hours, 240 µl of a 1/ 5,000 dilution of FA1090 in 2x FB was added to a 48-well plate containing 2-fold dilutions of either Oct-TriA1-c (final concentration, 12.5 µg/ml to 0.2 µg/ml) or ciprofloxacin (final concentration, 16.4 to 0.001 µg/ml) in a total volume of 480
(§16) µl. Plates were incubated at 37 °C, 5% CO2 with shaking (180 rpm). After 24 hours, ODA600 of each well […]
(§17) Peptide concentrations for ADCs were calculated from the antibody concentration, the drug-to-antibody ratio (DAR), and the peptide molecular weight using the following formula: […]

[7] = tested on: N. gonorrhoeae G97687 (MDR strain); assay: Time-to-kill assay; format: cell-based, Neisseria gonorrhoeae; conditions: G97687, peptide 50 μg mL^−1, GW medium; n = 3
Method: as §12, §13, §14, §15, §16, §17

[8] = tested on: N. gonorrhoeae FA1090; assay: microbe, parasite or virus in culture; conditions: FA1090, FB
Method: as §13, §14, §15, §16
to fresh media containing all concentrations of antimicrobials for a total of 35 days. […]

`CCCCCCCC(=O)N[C@@H](C(=O)N[C@H](CCN)C(=O)NCC(=O)N[C@H](CO)C(=O)N[C@H](Cc1c[nH]c2ccccc12)C(=O)N[C@@H](CO)C(=O)N[C@@H](CCN)C(=O)N[C@H](CCN)C(=O)N[C@@H](Cc1ccccc1)C(=O)N[C@@H](CCC(=O)O)C(=O)N[C@H](C(=O)N[C@@H](C(=O)N[C@@H](C)C(=O)NCCOCCOCC(=O)N[C@@H](CC(C)C)C(=O)N1CCC[C@H]1C(=O)N[C@@H](CCCNC(=N)N)C(=O)N1CCC[C@H]1C(=O)N1CCC[C@H]1C(=O)O)[C@@H](C)CC)C(C)C)C(C)C` [Oct-TriA1-c] (Octanoyl-[dV][dDab]G[dS][dW]S[Dab][dDab]FEV[d(aIle)]A[AEEA]LPRPP-OH) gave an MIC [1] of 0.78 µg/mL (≈ 0.35 µM), an MIC [2] of 1.56 µg/mL (≈ 0.701 µM) and an MIC [3] of 1.56 µg/mL (≈ 0.701 µM). The “fold reduced hemolytic activity” value ([4]; compared with unmodified Oct-TriA1) was over 25 fold, the “Hemolysis (HC50)” value ([4]; concentration of peptide or ADC that lyses 50% of erythrocytes, washed human blood 0.5%, 37°C, 1 hr, OD415, melittin 2.5 µM = 100%, PBS = 0%, n = 3) was >1,000 μg mL^−1 and the HC50 ([4]; human erythrocytes, 37°C, 1 hr, OD415) was over 1 mg/mL. For the same compound, the “MTT (EC50) 4 h” value ([5]; MTT reduction OD570, 4 h) was 101.98 µg/mL, the “MTT (EC50) 24 h” value ([5]; MTT reduction OD570, 24 h) was 78.78 µg/mL and the “MTT (EC50) 48 h” value ([5]; MTT reduction OD570, 48 h) was 61.09 µg/mL. The “time to undetectable survival” value [6] was 60 min, the “time to no survival” value [7] was 180 min and the “MIC at start of resistance evolution” value ([8]; 24 h, MIC = less than 50% growth (OD600) vs no antimicrobial) was 1.56 µg/mL. For the same compound, the “MIC after 35 d of resistance evolution” value ([8]; serial passage 35 d, MIC = less than 50% growth (OD600)) was 12.5 µg/mL.

Source: paper PMC13439108, “An antibody–drug conjugate active against antibiotic-resistant Neisseria gonorrhoeae” (Proceedings of the National Academy of Sciences of the …, 2026)
